Assay results as given in paper PMC5478271, “Chemical structure-guided design of dynapyrazoles, cell-permeable dynein inhibitors with a unique mode of action” (eLife, 2017).

Target: T1, human cytoplasmic dynein 2 (GFP-dynein 2, amino acids 1091–4307) (Homo sapiens, UniProt Q8NCM8)
T1 construct: (AA 1091–4307, uniprot: Q8NCM8); protein A tag (followed by TEV-cleavable linker) (N, cleaved yes); made in house; host or cells: Sf9 insect cells (baculovirus)
Experiment: Microtubule gliding (motility) assay with GFP-dynein 2
Assay type: biochemical
Details: for Velocity of dynein-2-driven microtubule gliding: 20 µM compound, solvent control 128 ± 14 nm/s, mean ± S.D.; for Velocity of dynein-2-driven microtubule gliding / IC50: 1 mM MgATP, 0.05 mg/mL casein, 2% DMSO; for IC50: read-out: IC50, inhibition of GFP-dynein-2-driven motility
Description: We purified an N-terminally GFP-tagged motor-domain construct of dynein 2 using an insect cell expression system ([Schmidt et al., 2015]). The GFP tag in this construct (GFP-dynein 2, amino acids 1091–4307) allowed the motor protein to be immobilized on passivated glass coverslips used in microtubule gliding assays. GFP-dynein 2 was obtained as a mono-disperse peak by gel filtration (Figure 2D and E). In the presence of ATP (1 mM), this protein moved microtubules with a velocity of 128 ± 14 nm/s (mean ± SD, Figure 2G and I).
Reaction setup: A coverslip-based motility assay was adapted from similar assays reported previously ([Firestone et al., 2012]; [Schmidt et al., 2015]). A flow chamber assembled on a pre-cleaned microscope coverslide (3–5 µL chamber volume) was hydrated with buffer A (25 mM PIPES, 30 mM KCl, 5 mM MgCl2, 1 mM EGTA, 0.01% Triton X-100, 1 mM DTT, 20 µM taxol, pH 7.0 with KOH). Anti-GFP antibody (0.4 mg/mL, affinity purified rabbit antibody) was flowed into the chamber and allowed to adhere non-specifically to the glass for 20 s. The surface was blocked using 0.5 mg/mL α-casein in buffer A. Excess protein was then washed away with buffer A. GFP-dynein motor domain was diluted in buffer A supplemented with 1 mM DTT and 0.1 mM ATP (2 mM DTT final; GFP-dynein 2 diluted to: 180 nM; GFP-dynein 1 diluted to: 60 nM), flowed into the chamber and allowed to bind for 20 s. Excess protein was washed away with buffer A. Reaction mix (25 mM PIPES, 90 mM KCl, 6 mM MgCl2, 1 mM EGTA, 0.01% Triton X-100, 3 mM DTT, 20 µM taxol, 1 mM ATP, 1x oxygen scavenging system components [4.5 mg/mL glucose, 35 µg/mL catalase, 200 µg/mL glucose oxidase], 2% final DMSO [v/v] with compounds at appropriate concentrations, 0.05 mg/mL α-casein, microtubules [rhodamine labeled, purified from bovine brain, GMP-CPP and Taxol-stabilized], pH 7.0 with KOH) was flowed into the chamber using ~4 chamber volumes. For experiments shown in Figure 4—figure supplement 1, α-casein concentration in reaction mix was 0.5 mg/mL and all other parameters were held constant.
For reversibility experiments, motility in the presence of 5 µM 8 was observed as above, and upon completion of imaging, the chamber, fresh buffer A supplemented with 1 mM ATP was flowed into the chamber and incubated for 1 min; this wash and incubation cycle was repeated twice. Reaction mix containing DMSO (no compound) was flowed into the chamber using ~4 chamber volumes. The chamber was sealed with valap and returned to the microscope.
Microscopy conditions: Following addition of reaction mix, microtubules were allowed to bind for 5 min before imaging. For reversibility experiments, microtubules were allowed to bind for 10 min before imaging. Videos were taken on a Zeiss Axiovert 200M wide-field microscope equipped with a Zeiss 100x/1.45 NA α-Plan-Fluar objective. Data were captured with an EM-CCD camera (iXon DU-897, Andor Technology) with a 0.2 s exposure time and frame rate of 0.25–0.5/second. Four 10–20 s videos were captured per experimental condition. Velocities were measured using the kymograph tool in FIJI ([Schindelin et al., 2012]). Data analysis is discussed below under ‘General data analysis procedures.’
Microtubule velocity measurements: the tracks of microtubules were traced and converted to kymographs (x axis-displacement, y axis-time) using the kymograph function of FIJI (RRID: SCR_002285). The angle formed between an edge of a microtubule and the horizontal was measured. This angle, θ, was converted into velocity using the following relationship: velocity = 1/|tangent(θ)| * (unit pixel distance)/(time interval between frames).
The calibrated pixel distance was 0.152 µm and the time interval between frames was either 2 or 4 s. The velocities of at least seven microtubules were measured per field of view, if sufficient tracks could be found. In cases where fewer than seven microtubules were found in a field of view, velocities of all microtubules on the coverslip were measured. […]

T1 sequence (Q8NCM8 1091-4307): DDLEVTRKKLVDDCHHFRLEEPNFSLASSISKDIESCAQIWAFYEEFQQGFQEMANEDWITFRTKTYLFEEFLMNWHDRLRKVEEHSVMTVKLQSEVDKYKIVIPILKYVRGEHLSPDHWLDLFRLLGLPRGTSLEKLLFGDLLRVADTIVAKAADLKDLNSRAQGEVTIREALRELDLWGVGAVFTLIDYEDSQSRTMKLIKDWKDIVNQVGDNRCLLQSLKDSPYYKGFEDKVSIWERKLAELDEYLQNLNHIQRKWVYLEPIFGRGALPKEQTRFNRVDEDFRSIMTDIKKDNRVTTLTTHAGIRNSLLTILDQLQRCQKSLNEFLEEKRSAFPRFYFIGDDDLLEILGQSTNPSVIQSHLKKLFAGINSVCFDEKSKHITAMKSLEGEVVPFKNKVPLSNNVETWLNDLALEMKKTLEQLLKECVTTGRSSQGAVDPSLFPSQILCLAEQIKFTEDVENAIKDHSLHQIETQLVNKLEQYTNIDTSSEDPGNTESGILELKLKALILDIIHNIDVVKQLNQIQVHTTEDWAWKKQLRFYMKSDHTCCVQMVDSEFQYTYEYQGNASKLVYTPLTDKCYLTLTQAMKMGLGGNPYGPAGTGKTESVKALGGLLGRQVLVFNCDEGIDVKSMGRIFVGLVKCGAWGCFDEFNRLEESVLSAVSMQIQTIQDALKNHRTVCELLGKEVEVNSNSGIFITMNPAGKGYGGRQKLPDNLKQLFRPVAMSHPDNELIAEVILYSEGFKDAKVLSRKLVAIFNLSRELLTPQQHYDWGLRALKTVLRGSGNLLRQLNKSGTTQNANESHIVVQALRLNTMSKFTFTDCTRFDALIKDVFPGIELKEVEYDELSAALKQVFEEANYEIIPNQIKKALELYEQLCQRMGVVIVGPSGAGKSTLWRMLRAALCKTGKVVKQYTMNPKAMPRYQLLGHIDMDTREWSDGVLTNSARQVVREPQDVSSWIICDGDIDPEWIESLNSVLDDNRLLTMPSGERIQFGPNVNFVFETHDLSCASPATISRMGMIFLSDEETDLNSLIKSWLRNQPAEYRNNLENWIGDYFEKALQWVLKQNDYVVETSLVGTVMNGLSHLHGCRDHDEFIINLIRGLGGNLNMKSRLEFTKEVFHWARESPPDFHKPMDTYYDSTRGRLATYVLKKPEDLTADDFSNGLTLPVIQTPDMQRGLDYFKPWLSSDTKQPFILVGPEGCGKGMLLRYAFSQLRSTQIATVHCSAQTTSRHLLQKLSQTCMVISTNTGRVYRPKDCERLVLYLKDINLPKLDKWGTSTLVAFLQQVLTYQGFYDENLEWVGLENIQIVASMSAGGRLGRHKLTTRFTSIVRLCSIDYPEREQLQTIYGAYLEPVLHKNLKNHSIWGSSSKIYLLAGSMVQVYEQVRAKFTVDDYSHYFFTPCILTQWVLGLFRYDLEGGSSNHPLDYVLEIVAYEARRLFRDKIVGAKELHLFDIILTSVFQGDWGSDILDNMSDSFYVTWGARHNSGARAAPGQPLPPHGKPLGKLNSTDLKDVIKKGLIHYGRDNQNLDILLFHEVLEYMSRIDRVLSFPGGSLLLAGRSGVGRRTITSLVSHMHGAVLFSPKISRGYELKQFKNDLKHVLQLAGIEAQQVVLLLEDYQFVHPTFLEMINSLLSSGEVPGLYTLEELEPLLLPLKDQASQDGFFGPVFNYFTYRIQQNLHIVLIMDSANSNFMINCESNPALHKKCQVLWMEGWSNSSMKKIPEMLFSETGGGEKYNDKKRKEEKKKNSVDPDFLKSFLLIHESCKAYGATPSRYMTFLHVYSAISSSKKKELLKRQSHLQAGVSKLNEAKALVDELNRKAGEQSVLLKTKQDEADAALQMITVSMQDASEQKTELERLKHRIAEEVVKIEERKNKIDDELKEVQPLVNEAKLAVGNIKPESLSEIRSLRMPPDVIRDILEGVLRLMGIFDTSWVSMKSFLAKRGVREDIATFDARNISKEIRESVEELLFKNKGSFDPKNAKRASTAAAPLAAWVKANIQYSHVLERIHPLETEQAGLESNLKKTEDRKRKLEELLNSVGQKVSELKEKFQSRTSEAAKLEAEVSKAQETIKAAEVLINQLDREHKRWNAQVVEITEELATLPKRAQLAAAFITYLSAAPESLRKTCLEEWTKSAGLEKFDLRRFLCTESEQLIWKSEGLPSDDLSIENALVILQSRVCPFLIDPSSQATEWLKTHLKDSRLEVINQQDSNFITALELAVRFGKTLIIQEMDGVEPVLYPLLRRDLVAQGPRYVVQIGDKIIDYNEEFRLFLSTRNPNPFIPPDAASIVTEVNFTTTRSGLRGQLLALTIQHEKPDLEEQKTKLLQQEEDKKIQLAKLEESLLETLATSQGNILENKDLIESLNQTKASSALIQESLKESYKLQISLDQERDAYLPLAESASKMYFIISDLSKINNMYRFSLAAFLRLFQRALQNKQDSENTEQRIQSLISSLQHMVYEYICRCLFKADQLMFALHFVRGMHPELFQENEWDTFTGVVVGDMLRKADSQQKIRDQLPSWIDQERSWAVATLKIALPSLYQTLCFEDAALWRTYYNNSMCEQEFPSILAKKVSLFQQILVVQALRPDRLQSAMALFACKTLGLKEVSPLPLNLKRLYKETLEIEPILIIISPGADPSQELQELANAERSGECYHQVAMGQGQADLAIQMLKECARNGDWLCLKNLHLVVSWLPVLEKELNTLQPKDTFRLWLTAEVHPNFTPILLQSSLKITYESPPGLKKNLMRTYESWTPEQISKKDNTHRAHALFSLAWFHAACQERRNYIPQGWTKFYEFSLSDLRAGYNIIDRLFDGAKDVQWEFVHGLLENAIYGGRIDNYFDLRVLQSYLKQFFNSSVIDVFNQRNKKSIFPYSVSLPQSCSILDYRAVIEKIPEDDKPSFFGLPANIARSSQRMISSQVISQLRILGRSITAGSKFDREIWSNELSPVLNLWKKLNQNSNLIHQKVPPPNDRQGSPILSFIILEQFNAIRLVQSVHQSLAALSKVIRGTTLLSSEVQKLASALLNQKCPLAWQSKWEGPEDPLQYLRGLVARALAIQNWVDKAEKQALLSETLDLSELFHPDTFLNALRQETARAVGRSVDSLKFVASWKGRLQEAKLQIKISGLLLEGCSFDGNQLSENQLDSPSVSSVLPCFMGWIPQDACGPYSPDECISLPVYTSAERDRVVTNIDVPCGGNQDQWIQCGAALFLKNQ

Structure (SMILES)	Velocity of dynein-2-driven microtubule gliding	IC50 [µM]	Improvement in potency of dynein 2 inhibition by cyclization (compound 6 versus compound 9) (microtubule gliding assay)
COc1ccc2c(c1)c(=O)[nH]c1c(C#N)c(C3(c4ccc(Cl)cc4)CC3)nn12 [Compound 7, 2-[1-(4-chlorophenyl)cyclopropyl]-7-methoxy-5-oxo-4H-pyrazolo[1,5-a]quinazoline-3-carbonitrile]	128 ± 21 nm/s		
N#Cc1c(C2(c3ccc(Cl)cc3)CC2)nn2c1[nH]c(=O)c1ccccc12 [Compound 5, 2-[1-(4-chlorophenyl)cyclopropyl]-5-oxo-4H-pyrazolo[1,5-a]quinazoline-3-carbonitrile]	58 ± 14 nm/s		
N#C/C(C(=O)c1ccc(Cl)cc1Cl)=C1\NC(=O)c2cc(C(F)(F)F)ccc2N1 [Compound 9, (E)-3-(2,4-dichlorophenyl)-3-oxo-2-(4-oxo-6-(trifluoromethyl)-3,4-dihydroquinazolin-2(1H)-ylidene)propanenitrile]		17.7	
O=c1[nH]c2cc(-c3ccc(Cl)cc3Cl)nn2c2ccccc12 [Compound 3, 2-(2,4-dichlorophenyl)-4H-pyrazolo[1,5-a]quinazolin-5-one]	comparable to that observed in the presence of ciliobrevin D		
N#Cc1c(-c2ccc(Cl)cc2Cl)nn2c1[nH]c(=O)c1ccccc12 [Compound 4, 2-(2,4-dichlorophenyl)-5-oxo-4H-pyrazolo[1,5-a]quinazoline-3-carbonitrile]	comparable to that observed in the presence of ciliobrevin D		

The next lines start with the values.

Velocity of dynein-2-driven microtubule gliding	IC50 [µM]	Improvement in potency of dynein 2 inhibition by cyclization (compound 6 versus compound 9) (microtubule gliding assay)	Structure (SMILES)
6 ± 2 nm/s	2.9 ± 0.6	~ 6 fold	N#Cc1c(C2(c3ccc(Cl)cc3)CC2)nn2c1[nH]c(=O)c1cc(C(F)(F)F)ccc12 [Compound 6, 2-(1-(4-chlorophenyl)cyclopropyl)-5-oxo-7-(trifluoromethyl)-4,5-dihydropyrazolo[1,5-a]quinazoline-3-carbonitrile]
126 ± 17 nm/s			N#Cc1c(-c2ccc(Cl)cc2Cl)cn2c1[nH]c(=O)c1ccccc12 [Compound 2, 2-(2,4-dichlorophenyl)-5-oxo-4H-pyrrolo[1,2-a]quinazoline-3-carbonitrile]
